Measured values from patent EP4566586A1, “SKIN-CARE PRODUCT COMPOSITION AND PHARMACEUTICAL COMPOSITION COMPRISING SULFONATED CALIXARENE, AND USE OF SULFONATED CALIXARENE” (Calix Biotechnology (Hangzhou) Co., Ltd, priority 2022, dated 2024).
In brackets after ≈: the same amount, converted by molar mass. Marks after values point to notes of the source that are not given here.

Key:
[1] = UV titration, binding constants between SC8A-12C and skincare active substances; details: 25°C, 1:1 host-guest direct binding model; for Binding constants Ka: host SC8A-12C, active substance 15 µM in deionized water
Description: (§1) Test Method: UV titration.
Test Equipment: A Japan Shimadzu UV-3600 UV-Visible Spectrophotometer, equipped with a temperature control module (model: PTC-348WI), was used. The samples were tested using Shimadzu's quartz cuvettes with an optical path length of 10 mm.
(§2) Reagents: Vitamin A (Va) was purchased from Shanghai Macklin Biochemical Technology Co., Ltd, retinoic acid was purchased from Heowns Biochem Technologies, LLC, Tianjin, and other skincare active substances were commercially available products.
(§3) Va was dissolved in methanol to a concentration of 2 mM. During the test, the Va stock solution was added to a cuvette and adjusted to a volume of 3 mL with deionized water, resulting in a concentration of 10 µM. […] The binding constant Kα for the host-guest inclusion was determined.
During the test, the retinoic acid stock solution was added to a cuvette and adjusted to a volume of 3 mL with deionized water, resulting in a concentration of 15 µM.
During the test, the stock solution of the active substance was added to a cuvette and adjusted to a volume of 3 mL with deionized water, resulting in a concentration of 15 µM. […] The UV titration data were fitted using a 1:1 host-guest direct binding model to determine the binding constant Kα for the host-guest inclusion.

[2] = Stabilization of Va by SC8A-12C (UV-visible spectrophotometry); type: physicochemical; details: free Va, methanol as a solvent aid, stored for two days in the dark
Description: Testing Method: UV-Visible Spectrophotometry.
Va was dissolved in methanol to prepare a Va methanol solution with a concentration of 4 mM, which was then kept in the dark for two days. The UV absorptions of both the freshly prepared and the two-day stored Va methanol solutions were tested. During the testing, the Va methanol solution was first added to a cuvette, and deionized water was used to adjust the volume to 3 mL, achieving a final concentration of Va at 10 µM.

[3] = Skin permeability test of Va (transdermal diffuser); type: in vitro ADME; details: Va 0.4% (w/w), pig skin, 37°C, 55 hours
Description: Undamaged sections were cut into uniform thickness pieces approximately 2 cm × 2 cm in size, wrapped in plastic wrap, and stored at -20°C for later use. 0.8 mg of Va and 200 mg of skincare cream (ointment base) were weighed and added to a mortar. The mixture was thoroughly ground to dissolve Va in the skincare cream, resulting in a Va concentration of 0.4% (w/w). Subsequently, 0.8 mg of Va was weighed and dispersed in 200 µL of water by thoroughly shaking to prepare a suspension of Va (water base), with a Va concentration of 0.4% (w/w). […] The concentration of Va in the inclusion complex was also 0.4% (w/w). The skin was placed between the diffusion and receptor compartments after thawing. The receptor compartment was filled with the receptor solution (deionized water), and all air bubbles were expelled. The receptor compartment was maintained at 37°C in a circulating water bath throughout the experiment. The transdermal diffuser was activated, with a magnetic stirring speed set at 300 r·min^-1. After 55 hours, the solutions from the receptor compartments of each group were collected for UV detection.

[4] = Solubilization of Vitamin A by sulfonated calixarene (UV absorption); type: physicochemical
Description: Testing Method: UV Absorption Spectroscopy.
In 3 mL of deionized water, 5 mg (an excess amount) of Vitamin A was added, and the mixture was shaken overnight. The mixture was then centrifuged to collect the supernatant, and the UV Absorption Curve of the supernatant was measured (Figure 5).
Excess Va was added to each of these three solutions at a concentration of 5 mg/mL and shaken on a shaker to enhance the solubility of Va. After 24 hours, each group of solution was diluted 40-fold for UV absorption wavelength measurement. Meanwhile, Va was dissolved in methanol solution to prepare a 4 mM Va methanol stock solution. The Va methanol stock solution was then diluted in water to prepare a 5 µM Va standard solution with methanol as a solvent aid, which was used for UV absorption wavelength measurement.
An excess amount of Va was added to each of these solutions at 5 mg/mL, and the solutions were agitated on a shaking table to enhance the solubility of Va. After 24 hours, each group of solutions was diluted by an appropriate multiple (to fit the standard working curve described below) and used for the measurement of UV absorbance intensity.
A standard working curve for Va was prepared. A methanol solution containing 4 mM of Va was prepared. […] Subsequently, the UV absorbance intensities of these six groups of solutions with different concentrations of Va were measured, and a standard working curve was prepared.

physchem = details: water
Description: Test Method: UV Absorption Spectroscopy.
The UV absorption intensities were measured, and a standard working curve was prepared. […] The mixtures were shaken overnight and then centrifuged to collect the supernatant for UV absorption curve detection.

[5] = UV titration, binding constants between SC8A-12C and skincare active substances; details: host SC8A-12C, active substance 15 µM in deionized water, 25°C, 1:1 host-guest direct binding model
Description: as §1, §2
as §3, with “The change in UV absorption intensity was recorded after each addition of the SC8A-12C stock solution. […] The” for “The”
SC8A-12C stock solution and retinoic acid stock solution were first prepared. […] During the test, the retinoic acid stock solution was added to a cuvette and adjusted to a volume of 3 mL with deionized water, resulting in a concentration of 15 µM. […] The change in UV absorption intensity was recorded after each addition of the SC8A-12C stock solution.
During the test, the stock solution of the active substance was added to a cuvette and adjusted to a volume of 3 mL with deionized water, resulting in a concentration of 15 µM. […] The change in UV absorption intensity was recorded after each addition of the SC8A-12C stock solution. […]

[6] = Skin permeability test of retinoic acid (transdermal diffuser); type: in vitro ADME; details: ointment base (cream), retinoic acid 1% (w/w), pig skin, 37°C, 24 hours
Description: Testing Method: Skin Permeability Test
Testing Equipment: TP-6 Intelligent Transdermal Diffuser (Tianjin Jingtuo Instrument Technology Co., Ltd.)
Undamaged sections were cut into uniform thickness pieces, approximately 2 cm × 2 cm in size, wrapped in plastic wrap, and stored at -20°C for later use.
The concentration of retinoic acid in the inclusion complex was determined by UV detection, and subsequently diluted to 0.1% (w/w). Additionally, 3 mg of retinoic acid was weighed and mixed with 297 mg of cream in a mortar. The mixture was thoroughly ground to dissolve retinoic acid in the cream, resulting in a retinoic acid concentration of 1% (w/w).
The skin was placed between the diffusion and receptor compartments after thawing. The receptor compartment was filled with the receptor solution (deionized water), and all air bubbles were expelled. The receptor compartment was maintained at 37°C in a circulating water bath throughout the experiment. The transdermal diffuser was activated, with a magnetic stirring speed set at 300 r·min^-1. After 24 hours, the solutions from the receptor compartments of each group were collected for UV detection.

[7] = Solubilization of Retinoic acid by sulfonated calixarene (UV absorption); type: physicochemical; details: 5 mg retinoic acid in 3 mL deionized water, shaken overnight, supernatant UV
Description: Testing Equipment: A Japan Shimadzu UV-3600 UV-Visible Spectrophotometer, equipped with a temperature control module (model: PTC-348WI), was used. The samples were tested using Shimadzu's quartz cuvettes with an optical path length of 10 mm.
Excess retinoic acid was added to each of the three groups of solutions at a concentration of 5 mg/mL, followed by ultrasonic treatment to enhance the solubility of retinoic acid. After 20 mins, each group of solution was diluted 10-fold for UV absorption wavelength measurement. At the same time, 5 mg (an excess amount) of retinoic acid was added to 3 mL of deionized water, the mixture was shaken overnight, centrifuged to obtain the supernatant. […] Retinoic acid was dissolved in methanol solution to prepare a stock solution of 4 mM retinoic acid in methanol. After 20 mins, the stock solution of retinoic acid in methanol was diluted in water to prepare a retinoic acid standard solution with an appropriate concentration, for UV absorption wavelength detection. […]
A standard working curve for retinoic acid was prepared. […] Subsequently, the UV absorbance intensities of these six groups of solutions with different concentrations of retinoic acid were measured, and a standard working curve was prepared.

| Binding constants Ka [1] | Compound | further results |
| --- | --- | --- |
| 5.2±0.1×10^3 M^-1 | O=C(O)CCCCCCCC(=O)O [azelaic acid] |  |
| 5.3±0.4×10^3 M^-1 | OC[C@@H](O)[C@@H](O)[C@H](O)[C@@H](O)CO [sorbitol] |  |
| 2.5±0.5×10^3 M^-1 | sphingolipids |  |
| 2.6±0.3×10^3 M^-1 | proanthocyanidins |  |
| 2.9±0.2×10^3 M^-1 | Nc1ccc(C(=O)OCC(O)CO)cc1 (stereo not shown) [glyceryl p-aminobenzoate] |  |
| 2.6±0.4×10^3 M^-1 | vitamin E |  |
| 6.5±0.2×10^3 M^-1 | ceramides |  |
| 5.2±0.3×10^3 M^-1 | O=C1O[C@H]([C@@H](O)CO)C(O)=C1O[C@H]1O[C@H](CO)[C@@H](O)[C@H](O)[C@H]1O [ascorbyl glucoside] |  |
| 3.8±0.3×10^3 M^-1 | CCCCCCOC(=O)c1ccccc1C(=O)c1ccc(N(CC)CC)cc1O [diethylamino hydroxybenzoyl hexyl benzoate] |  |

Second part, the compound before the results:

| Compound | Binding constants Ka [1] | further results |
| --- | --- | --- |
| vitamin A | 4.4±0.5×10^5 M^-1 | binding constant Kα of SC8A-12C ([1]; guest Va 10 µM (317 nm) or retinoic acid 15 µM): (4.0 ± 0.5) ×10^5 M^-1; UV absorption of the Va aqueous solution after storage [2]: significantly decreased; Va in the receptor compartment ([3]; ointment base): no Va was detected; permeability of Va ([3]; water base (suspension)): not good enough; solubility of Va in water ([4]; 5 mg Va in 3 mL deionized water, shaken overnight, supernatant UV): almost insoluble; [dissolved Va] ([4]; [SC8A-12C] 0 µM, Not detected under UV): 0* µM |
| O=S(=O)(O)c1cc2c(O)c(c1)Cc1cc(S(=O)(=O)O)cc(c1O)Cc1cc(S(=O)(=O)O)cc(c1O)Cc1cc(S(=O)(=O)O)cc(c1O)Cc1cc(S(=O)(=O)O)cc(c1O)Cc1cc(S(=O)(=O)O)cc(c1O)Cc1cc(S(=O)(=O)O)cc(c1O)Cc1cc(S(=O)(=O)O)cc(c1O)C2 [SC8A, Sulfonated calix[8]arene] |  | solubilization of Va [4]: failed to solubilize Va |
| Cn1c(=O)c2c(ncn2C)n(C)c1=O [caffeine] | 3.2±0.8×10^3 M^-1 |  |
| CC(c1ccccc1)c1ccc(O)cc1O (stereo not shown) [phenylethyl resorcinol] |  | solubility (physchem): 4900 µg/mL (≈ 22.9 mM) |
| cocamidopropyl betaine | 0.8±0.1×10^4 M^-1 |  |
| CCCCCCCCCCO[C@@H]1O[C@H](CO)[C@@H](O)[C@H](O)[C@H]1O [decyl glucoside] | 3.3±0.5×10^4 M^-1 |  |
| palmitoyl tripeptide-5 |  | Binding constants Ka [5]: 6.3±0.6×10^3 M^-1 |
| O=S(=O)(O)c1cc2c(O)c(c1)Cc1cc(S(=O)(=O)O)cc(c1O)Cc1cc(S(=O)(=O)O)cc(c1O)Cc1cc(S(=O)(=O)O)cc(c1O)C2 [SC4A, Sulfonated calix[4]arene] |  | solubilization of Va [4]: failed to solubilize Va |
| α-bisabolol | 2.8±0.6×10^4 M^-1 |  |
| OC[C@H]1O[C@@H](Oc2ccc(O)cc2)[C@H](O)[C@@H](O)[C@@H]1O [arbutin] | 4.3±0.5×10^3 M^-1 |  |
| CC(C)CCC[C@@H](C)[C@H]1CC[C@H]2[C@@H]3CC=C4C[C@@H](O)CC[C@]4(C)[C@H]3CC[C@]12C [cholesterol] | 2.3±0.5×10^5 M^-1 |  |
| CC1=C(/C=C/C(C)=C/C=C/C(C)=C/C(=O)O)C(C)(C)CCC1 [retinoic acid] |  | retinoic acid in the receptor compartment (UV absorption peak) [6]: no absorption peak of retinoic acid was detected; solubility of retinoic acid in water [7]: hardly soluble |
